Entries after “also recorded” stand apart in the source; their conditions may differ.
Tests used:
[1] = tested on: P. falciparum NF54 female gametocytes; assay: P. falciparum dual gamete formation assay, female; assay type: cell-based, Plasmodium falciparum; details: up to a concentration of 20 μM, 24 h incubation
Protocol: Mature P. falciparum NF54 gametocytes were cultured at Imperial College London (London, United Kingdom), as previously described. […] Male gamete formation was quantified by computer-aided automated identification and counting of exflagellation centers. Female gamete formation was visualized by live immunofluorescence with a Cy3-conjugated antibody specific for Pfs25—a female gamete expressed surface protein. […] IC50 values were calculated using GraphPad Prism version 6 using the logarithmic versus normalized response (variable slope) function (Graphpad Software, San Diego, US).

[2] = tested on: P. falciparum V1/S (Vietnam); assay: [3H]-hypoxanthine incorporation assay, V1/S; assay type: cell-based, Plasmodium falciparum; details: read-out: 50% inhibitory concentration (IC50); V1/S, resistance CQ, SUL, PYR, CYC; mean ± SD
[3] = tested on: P. falciparum strain 3D7 (MR4); assay: In vitro parasite reduction ratio (PRR) assay; assay type: cell-based, Plasmodium falciparum
Protocol: In vitro PRR testing was conducted at GSK (Tres Cantos, Madrid, Spain) as previously described. The assay used the limiting dilution technique to quantify the number of parasites that remained viable after drug treatment. […] Parasites were treated for 120 h. Drug in culture medium was renewed daily over the entire treatment period. […] To quantify the number of viable parasites after treatment, 3-fold serial dilutions were used with the above mentioned samples after removing the drug. Four independent serial dilutions were performed with each sample to correct experimental variations. The number of viable parasites was determined after 21 and 28 d by counting the number of wells with growth using [^3H]-hypoxanthine incorporation. The number of viable parasites was back-calculated by using the formula X^n-1 where n is the number of wells able to render growth and X the dilution factor (when n = 0, number of viable parasites is estimated as zero). […] The parasite clearance time to kill 99.9% of the initial population was determined using a regression calculated on the log-linear phase of the parasite reduction, taking into account the lag phase.

[4] = Effect of formulation and food on oral pharmacokinetics in dogs; assay type: in vivo; details: for AUC increase versus suspension formulation / Cmax increase versus suspension formulation: fasted dogs; for AUC0-∞ geometric mean / Cmax geometric mean: dogs, 100 mg oral, fasted
[5] = Blood concentrations in P. berghei infected mice; assay type: in vivo; details: 1, 4, 24 h after first dose of triple-dose regimen
Protocol: To assess the PK parameters in infected mice, blood samples were taken at 1, 4, and 24 h after the first dose of a triple-dose regimen in the P. berghei efficacy studies. The employed doses were 15 or 30 mg/kg bis in die (b.i.d.), and 30, 50, 100, 300 mg/kg quaque die (q.d.) (n = 3/timepoint and dose).

[6] = Chromosome aberration study in vitro
[7] = tested on: P. falciparum oocysts in Anopheles stephensi; assay: Standard membrane feeding assay, direct mode; assay type: cell-based, Plasmodium falciparum; details: compound added at the time of mosquito feeding, concentrations up to 1 μM
Protocol: ACT-451840 was tested in the standard membrane feeding assay at TropIQ (Nijmegen, The Netherlands) in two modes, as previously described. In the direct mode, the compound was directly added to a bloodmeal containing mature stage V gametocytes that was fed to Anopheles stephensi mosquitoes. […] Seven days after the bloodmeal, the number of oocysts in the midgut was determined by microscopy for both modes. […] Vehicle control (0.1% DMSO) and positive control (10 μM dihydroartemisinin) were included. Twenty mosquitoes were dissected per sample, and oocyst load was analyzed per mosquito.

[8] = Effect of formulation and food on oral pharmacokinetics in dogs; assay type: in vivo; details: for AUC0-∞ geometric mean / Cmax geometric mean: dogs
Protocol: The fumarate salt of ACT-451840 was administered orally at 10 mg/kg to fasted and fed male dogs (100 mg/dog, n = 4) as a suspension in an aqueous vehicle containing 0.5% (w/w) methylcellulose.

[9] = 100 mg oral, aqueous suspension, fasted
[10] = fumarate salt 100 mg oral, aqueous suspension containing 0.5% methylcellulose, fasted
[11] = fumarate salt 100 mg oral, aqueous suspension containing 0.5% methylcellulose, fed
[12] = methylcellulose suspension, higher in fed

## CC(=O)N1CCN(c2ccc(CN(C(=O)/C=C/c3ccc(C(C)(C)C)cc3)[C@@H](Cc3ccccc3)C(=O)N3CCN(Cc4ccc(C#N)cc4)CC3)cc2)CC1 [ACT-451840]
[1]
  effect on functional viability of female gametocytes (Pfs25 expression): no activity; also recorded: no effect
[2]
  IC50: 0.3 nM
[3]; 10 x IC50
  lag phase in the killing curve: without lag phase
  parasite clearance time to kill 99.9% of the initial population: 28 h
[3]; 10 x IC50, decrease in viable parasites over 48 h
  log PRR: 4.4
[3]; asexual blood stage forms
  PRR: > 4 log per parasite cycle
[4]; Phosal 53 MCT solution
  AUC increase versus suspension formulation: 5.0 fold
  Cmax increase versus suspension formulation: 4.3 fold
  AUC0-∞ geometric mean: 597 ng·h/mL
  Cmax geometric mean: 112 ng/mL
[4]; corn oil solution
  AUC increase versus suspension formulation: 7.8 fold
  Cmax increase versus suspension formulation: 8.1 fold
  AUC0-∞ geometric mean: 935 ng·h/mL
  Cmax geometric mean: 213 ng/mL
[5]
  blood concentration in infected mice compared to healthy mice: No significant difference
[6]
  genotoxicity, chromosome aberration study: not genotoxic
[7]
  activity against P. falciparum oocysts: did not show any activity
[8]; [9]
  AUC0-∞ geometric mean: 120 ng·h/mL
  Cmax geometric mean: 26.2 ng/mL
[8]; [10]
  AUC0-∞ geometric mean: 304 ng·h/mL
  Cmax geometric mean: 46.2 ng/mL
[8]; [11]
  AUC0-∞ geometric mean: 1720 ng·h/mL
  Cmax geometric mean: 171 ng/mL
[8]; [12]
  AUC fed dogs versus fasted dogs: 5.7 fold
  Cmax fed dogs versus fasted dogs: 3.7 fold
